Reference: US9060989B2, “Method for treating or relieving inflammatory bowel disease” (INDUSTRIAL TECHNOLOGY RESEARCH INSTITUTE, priority 2010, dated 2015)

Test system: enteritis induced by trinitrobenzene sulfonic acid (TNBS)
Assay: Improvement of bowel swelling and mushy or watery feces in TNBS-induced enteritis
Type: in vivo
Conditions: TNBS-induced enteritis mice, oral; extracts 100 mg/kg (B. krylovianum also 1000 mg/kg), 5-ASA 200 mg/kg; 6 cm bowel from the anus observed
Text: The animal model of enteritis for test is from an induction by trinitrobenzene sulfonic acid (TNBS) (Current Protocols in Immunology (2001) 15.19.1-15.19.14; Lahat G, Halperin D, Fabian I, et al. Immunomodulatory Effects of Ciprofloxacin in TNBS-Induced Colitis in Mice. Inflamm Bowel Dis 2007;13:557-565; ten Hove T, van den Blink B, Pronk I, et al. Dichotomal role of inhibition of p38 MAPK with SB 203580 in experimental colitis. Gut 2002; 50:507-512; and Bouma G, Strober W. The Immunological and Genetic Basis of Inflammatory Bowel Disease. Nature Review Immunology 2003; 3: 521-533). The bowel in the animal model of enteritis has swelled and the feces therein show a mushy or watery appearance instead of a normal semi-solid type appearance.
Specifically, BABL/cAnNCrlBltw mice, purchased from BioLASCO Taiwan (Bltw) were grouped into four groups having 6 mice to a group. In three of the groups, each mouse was injected with 1.75 mg of trinitrobenzene sulfonic acid (TNBS) (Sigma) at a 4 cm depth of the bowel from the anus. After 48 hours, the injected location was induced to form enteritis. Mice in another group were injected with a 50% ethanol aqueous solution without TNBS at a 4 cm depth of the bowel from the anus as a negative control (A). The location injected ethanol aqueous solution without TNBS was not induced to form enteritis. […]

Nc1ccc(O)c(C(=O)O)c1 [5-ASA, 5-aminosalicylic acid]
bowel swelling: not alleviated or eliminated
